Source: publication PMC5834442, “Identifying inhibitors of the Leishmania inositol phosphorylceramide synthase with antiprotozoal activity using a yeast-based assay and ultra-high throughput screening platform” (Scientific Reports, 2018)

test system: L. donovani (MHOM/SD/62/1S-CL2D, LdBOB) axenic amastigotes; assay: Leishmania donovani axenic amastigote dose response assay (resazurin); format: cell-based; conditions: -logIC50 mol against L. donovani (LdBOB) axenic amastigotes, read-out: pIC50 Axenic (converted)

Row | Compound | IC50 [µM]
1 | Cc1[nH]c2ccccc2c(=O)c1Cc1ccc(OC(F)(F)F)cc1 [4598W 92C*A] | 1.55
2 | Cc1[nH]c2ccccc2c(=O)c1Cc1ccc(C(F)(F)F)cc1 [4671W 92C*A] | 1.17
3 | COc1ccc(N(Cc2ccc(-c3ccccc3)o2)S(=O)(=O)c2ccccn2)cc1 [AD102638-200A3B22] | 5.89
4 | COc1ccc(Cl)cc1NC(=O)Nc1cccc(Br)c1 [C2180/12/1] | 4.79
5 | OC(Cn1ccnc1)(c1ccc(Cl)cc1Cl)C1CCCCC1 (centres unmarked) [CJL/479/3] | 5.75
6 | O=S(=O)(Nc1cccc(F)c1CN1CCC(F)(F)C1)c1ccc(Cl)c(Cl)c1 [DS105792-004A6B1] | 9.12
7 | Cc1ccc(-c2cnc(N)c(-c3nc4ccc(F)cc4[nH]3)c2)cc1 [HL209813-065A1] | 7.59
8 | Cc1nc(-c2ccccc2)c(-c2ccnc(Nc3cc(S(N)(=O)=O)ccc3C)n2)s1 [N6896-93-B1] | 1.55
9 | CNS(=O)(=O)c1ccc(C)c(Nc2nccc(-c3sc(C)nc3-c3ccccc3)n2)c1 [N6896-96-B1] | 0.661
10 | C=CCOc1ccc(-c2nc(-c3ccc4c(c3)CCNCC4)no2)cc1Cl.Cl [N11110-83-1] | 7.94
11 | O=C(Nc1cc(C(F)(F)F)ccc1Cl)c1ccccc1O [SC/67526] | 5.25
12 | O=C(Nc1cccc(Cl)c1)Nc1ccc2nnsc2c1 [SC/98031] | 6.61
13 | Oc1ccc(-c2nccc(-c3ccc(Cl)cc3)n2)cc1 [SC/101464] | 2.75
14 | Cc1cc([N+](=O)[O-])ccc1NC(=O)Nc1cccc(F)c1 [SC/109683] | 3.8
15 | Cc1ccc(-c2ccnc(-c3ccc(O)cc3)n2)cc1 [SC/128042] | 6.61
16 | Cc1ccc(S(=O)(=O)Nc2cc(Cl)c(Cl)cc2Cl)cc1 [ST/411835] | 7.08
17 | O=C(c1cccc(F)c1)c1coc2ccc(Br)cc2c1=O [ST/472875] | 2.29
18 | Cc1cc(C)n2nc(S(=O)(=O)Nc3c(Cl)cccc3Cl)nc2n1 [ST/833860] | 41.7
19 | Cc1cc(O)c(Cl)c(C)c1NS(=O)(=O)c1ccc(Br)cc1 [ST/835722] | 26.9
20 | Brc1ccc(OCc2nc3ccccc3[nH]2)cc1 [ST/839801] | 49
21 | CSc1ccccc1NS(=O)(=O)c1cccs1 [ST/867134] | > 50
22 | Cc1ccc(O)c(NC(=O)c2cccc(Br)c2)c1 [ST/867278] | 21.9
23 | O=C(Nc1cc(Cl)c(O)c(Cl)c1)c1ccc(Br)cc1 [ST/869684] | 17.8
24 | Cc1cc(-c2nc3cc(Cl)ccc3o2)ccc1N [ST/880430] | 26.9
25 | C=CCNc1nc(N)c([N+](=O)[O-])c(Nc2cccc(F)c2)n1 [ST/892571] | > 50

Row | Compound | IC50 [µM]
26 | CSc1nsc(NC(=O)Nc2ccc(Cl)cc2)n1 [ST/905433] | 30.2
27 | O=S(=O)(Nc1cccc(Cl)c1Cl)c1cccs1 [ST/906545] | 21.4
28 | CCOc1cc(S(=O)(=O)N2CCN(Cc3ccc4c(c3)OCO4)CC2)ccc1Br [ST/910382] | 21.4
29 | O=c1nc(SCc2ccccc2F)c2c([nH]1)CCCC2 [ST/915519] | > 50
30 | CNS(=O)(=O)c1ccc(NC(=O)c2csc(C)c2-c2ccccc2)cc1 [ST/937316] | 38.9
31 | Fc1ccc(CNc2ncc(-c3ccncc3)c(-c3ccoc3)n2)cc1 [ST/945994] | > 50
32 | CN1CCN(CC(=O)Nc2ccc3c(c2)CCC3)CC1c1ccccc1 (centres unmarked) [ST/961462] | > 50
33 | CN1CCN(CC(=O)Nc2ccc(C(F)(F)F)cc2)CC1c1ccccc1 (centres unmarked) [ST/961463] | > 50
34 | O=C(O)Cc1c(-c2cccs2)nc2ccccc2c1-c1ccccc1 [ST/1080669] | 12.9
35 | O=C(Nc1ccon1)c1cc2c(s1)CCCCCC2 [ST/1100321] | 19.5
36 | CCCCCc1c(C)nc(Nc2ccccc2)[nH]c1=O [ST/1105254] | 17.4
37 | COc1ccc(Br)cc1C(=O)Nc1cc(Cl)ccc1O [ST/1108634] | 16.6
38 | CCc1noc2nc(C)nc(NC3CCCCCC3)c12 [ST/1113587] | 46.8
39 | O=C(Nc1ccc(NC(=O)c2cccs2)cc1Cl)c1ccccc1 [ST/1125044] | > 50
40 | Cc1cccn2c(=O)c(C(=O)NCc3ccncc3)c(O)nc12 [ST/1129403] | > 50
41 | COCC(C)NC(=O)c1c(O)nc2c(C)cccn2c1=O (centres unmarked) [ST/1131522] | > 50
42 | CCc1ccccc1Oc1cncc(-c2nc3ccccc3[nH]2)n1 [ST/1138848] | > 50
43 | Cc1cccc(C(=O)Nc2nc(-c3cccs3)ns2)c1 [ST/1197585] | 30.9
44 | COc1cccc(C(=O)Nc2nc(-c3cccs3)ns2)c1 [ST/1197587] | 21.9
45 | O=C(NCc1ccc2c(c1)OCO2)c1ccccc1NS(=O)(=O)c1cccs1 [ST/1217724] | 11.5
46 | NC(=O)c1cc(-c2csc(-c3ccsc3)n2)ccc1O [ST/1241904] | 20.9
47 | CNC(=O)CN(C)c1nc(-c2cccs2)nc2sc(C)c(C)c12 [ST/1245806] | > 50
48 | Cc1oc(-c2ccc(Cl)cc2)cc1C(=O)NCC(=O)c1cccs1 [ST/1260077] | 34.7
49 | COc1ccccc1-c1nc(-c2ccc(O)c(C(N)=O)c2)cs1 [ST/1261284] | 33.1
50 | O=c1nc(SCc2ccccc2Cl)c2c([nH]1)CCCC2 [ST/1287093] | > 50

Row | Compound | IC50 [µM]
51 | CCOc1ccc(C(C)C)cc1S(=O)(=O)n1ccnc1 [ST/1289929] | 10.5
52 | Cc1ccccc1S(=O)(=O)N1CCN(c2nccc(-c3cccs3)n2)CC1 [ST/1415177] | 21.9
53 | O=S(=O)(c1ccccc1)N1CCN(c2nccc(-c3cccs3)n2)CC1 [ST/1415180] | 39.8
54 | O=C(Nc1ccc(F)c(Cl)c1)c1cc(-c2ccc(O)cc2)on1 [ST/1440432] | 10.5
55 | CC(=O)N1N=C(COc2ccccc2Br)OC1C=Cc1ccccc1 (centres unmarked) [ST/1451035] | > 50
56 | CC(=O)N1N=C(COc2ccc(Cl)c(C)c2)OC1c1ccc(C)o1 (centres unmarked) [ST/1451045] | 19.1
57 | CC(=O)N1N=C(c2ccccc2Cl)OC1COc1ccc(Cl)cc1 (centres unmarked) [ST/1451125] | 15.8
58 | N#Cc1ccc(NCCOc2ccc3ccccc3c2)nc1 [ST/1543199] | > 50
59 | O=C1CCc2cc(-c3csc(-c4ccsc4)n3)ccc2N1 [ST/1544102] | > 50
60 | CCc1ccccc1NC(=O)c1cc(-c2ccc(Cl)cc2)oc1C [ST/1545686] | > 50
61 | Cc1ccc(Nc2nc(C(N)=O)c(NC(=O)C3CCC3)s2)cc1 [ST/1548033] | > 50
62 | CCn1cc(C(=O)O)c(=O)c2cc(F)ccc21 [ST/1766829] | 24.5
63 | c1ccc2oc(-c3ccnc4nncn34)cc2c1 [ST/1803771] | > 50
64 | N=c1nc2n(c(=N)[nH]1)NC(c1ccc(Cl)cc1)=CS2 [ST/1850161] | 47.9
65 | O=C(c1ccc(Cl)cc1)N1CCCn2c1nc1ccccc1c2=O [ST/1938375] | > 50
66 | CC(NC(=O)c1c(O)c2sccc2[nH]c1=O)c1ccc(F)cc1 (centres unmarked) [ST/1962332] | > 50
67 | O=c1c(O)c(-c2ccccc2)oc2cc(O)cc(O)c12 [ST/2097267] | 20.4
68 | O[C@@]1(c2ccc(F)cc2)CCCC[C@@H]1n1cncn1 [ST/2183803] | > 50
69 | CCc1ccc2c(c1)c(=O)c(C(=O)O)cn2CC(F)(F)F [ST/2184718] | 36.3
70 | Fc1ccc(-c2nn3c(OCC(F)(F)F)cccc3c2-c2ccncc2)cc1 [U12546/102/3] | 13.5
71 | Nc1ncc(-c2ccccc2)cc1-c1nc2ccccc2[nH]1 [U18123/163/3] | 37.2
72 | Cc1ccc(C2=NN(S(=O)(=O)c3cc(Cl)sc3Cl)C(C)C2)cc1 (centres unmarked) [U20197/52/63] | 32.4
73 | Cc1ccc(C2=NN(S(=O)(=O)c3ccc(Cl)cc3F)C(C)C2)cc1 (centres unmarked) [U20197/52/94] | > 50

test system: HepG2 cells; assay: Mammalian cell cytotoxicity assay (CellTiter-Glo); format: cell-based, human; conditions: not given

Row | Compound | pSI v HepG2
74 | Cc1cc([N+](=O)[O-])ccc1NC(=O)Nc1cccc(F)c1 [SC/109683] | 0.54

same assay, conditions: Homo sapiens; -logIC50 mol against HepG2; read-out: PIC50 HepG2 (converted)

Row | Compound | IC50 [µM]
75 | Cc1[nH]c2ccccc2c(=O)c1Cc1ccc(OC(F)(F)F)cc1 [4598W 92C*A] | 95.5
76 | Cc1[nH]c2ccccc2c(=O)c1Cc1ccc(C(F)(F)F)cc1 [4671W 92C*A] | > 100
77 | COc1ccc(N(Cc2ccc(-c3ccccc3)o2)S(=O)(=O)c2ccccn2)cc1 [AD102638-200A3B22] | 61.7
78 | COc1ccc(Cl)cc1NC(=O)Nc1cccc(Br)c1 [C2180/12/1] | 66.1
79 | OC(Cn1ccnc1)(c1ccc(Cl)cc1Cl)C1CCCCC1 (centres unmarked) [CJL/479/3] | 45.7
80 | O=S(=O)(Nc1cccc(F)c1CN1CCC(F)(F)C1)c1ccc(Cl)c(Cl)c1 [DS105792-004A6B1] | 47.9
81 | Cc1ccc(-c2cnc(N)c(-c3nc4ccc(F)cc4[nH]3)c2)cc1 [HL209813-065A1] | 75.9
82 | Cc1nc(-c2ccccc2)c(-c2ccnc(Nc3cc(S(N)(=O)=O)ccc3C)n2)s1 [N6896-93-B1] | > 100
83 | CNS(=O)(=O)c1ccc(C)c(Nc2nccc(-c3sc(C)nc3-c3ccccc3)n2)c1 [N6896-96-B1] | 38
84 | C=CCOc1ccc(-c2nc(-c3ccc4c(c3)CCNCC4)no2)cc1Cl.Cl [N11110-83-1] | 4.37
85 | O=C(Nc1cc(C(F)(F)F)ccc1Cl)c1ccccc1O [SC/67526] | 15.1
86 | O=C(Nc1cccc(Cl)c1)Nc1ccc2nnsc2c1 [SC/98031] | 17.8
87 | Oc1ccc(-c2nccc(-c3ccc(Cl)cc3)n2)cc1 [SC/101464] | > 100
88 | Cc1cc([N+](=O)[O-])ccc1NC(=O)Nc1cccc(F)c1 [SC/109683] | 13.2
89 | Cc1ccc(-c2ccnc(-c3ccc(O)cc3)n2)cc1 [SC/128042] | > 100
90 | Cc1ccc(S(=O)(=O)Nc2cc(Cl)c(Cl)cc2Cl)cc1 [ST/411835] | > 100
91 | O=C(c1cccc(F)c1)c1coc2ccc(Br)cc2c1=O [ST/472875] | 63.1

same assay, conditions: selectivity: pIC50 axenic minus pIC50 HepG2

Row | Compound | pSI v HepG2
92 | Cc1[nH]c2ccccc2c(=O)c1Cc1ccc(OC(F)(F)F)cc1 [4598W 92C*A] | 1.79
93 | Cc1[nH]c2ccccc2c(=O)c1Cc1ccc(C(F)(F)F)cc1 [4671W 92C*A] | 1.93
94 | COc1ccc(N(Cc2ccc(-c3ccccc3)o2)S(=O)(=O)c2ccccn2)cc1 [AD102638-200A3B22] | 1.02
95 | COc1ccc(Cl)cc1NC(=O)Nc1cccc(Br)c1 [C2180/12/1] | 1.14
96 | OC(Cn1ccnc1)(c1ccc(Cl)cc1Cl)C1CCCCC1 (centres unmarked) [CJL/479/3] | 0.90
97 | O=S(=O)(Nc1cccc(F)c1CN1CCC(F)(F)C1)c1ccc(Cl)c(Cl)c1 [DS105792-004A6B1] | 0.72
98 | Cc1ccc(-c2cnc(N)c(-c3nc4ccc(F)cc4[nH]3)c2)cc1 [HL209813-065A1] | 1.00
99 | Cc1nc(-c2ccccc2)c(-c2ccnc(Nc3cc(S(N)(=O)=O)ccc3C)n2)s1 [N6896-93-B1] | 1.81
100 | CNS(=O)(=O)c1ccc(C)c(Nc2nccc(-c3sc(C)nc3-c3ccccc3)n2)c1 [N6896-96-B1] | 1.76
101 | C=CCOc1ccc(-c2nc(-c3ccc4c(c3)CCNCC4)no2)cc1Cl.Cl [N11110-83-1] | -0.26
102 | O=C(Nc1cc(C(F)(F)F)ccc1Cl)c1ccccc1O [SC/67526] | 0.46
103 | O=C(Nc1cccc(Cl)c1)Nc1ccc2nnsc2c1 [SC/98031] | 0.43
104 | Oc1ccc(-c2nccc(-c3ccc(Cl)cc3)n2)cc1 [SC/101464] | 1.56
105 | Cc1ccc(-c2ccnc(-c3ccc(O)cc3)n2)cc1 [SC/128042] | 1.18
106 | Cc1ccc(S(=O)(=O)Nc2cc(Cl)c(Cl)cc2Cl)cc1 [ST/411835] | 1.15
107 | O=C(c1cccc(F)c1)c1coc2ccc(Br)cc2c1=O [ST/472875] | 1.44
